The source of these data is paper PMC5613053 (Investigational New Drugs, 2017).

One experiment relates to MV4–11-luc cells. In words: Intra-bone marrow transplantation (IBMT) model. Type of experiment: in vivo, mice. How it is done: In the intra-bone marrow transplantation (IBMT) model, MV4–11-luc cells (1 × 10^6 cells/mouse) were injected into the bone marrow of the left tibia of female NOD-SCID mice (day 0) following the protocol detailed by Lee et al.. Tumor growth was monitored by bioluminescent imaging of the whole body with an IVIS Spectrum (PerkinElmer, Waltham, MA). […] Tumor growth was monitored once a week during the dosing period and then every other week until day 100. Survival was also monitored daily until day 168.

For another experiment, the target named is T1, phosphorylated FLT3 (Homo sapiens, UniProt P36888, INS600HVDFREYEYD).
T1 construct: MV4–11 cells, which endogenously express FLT3-ITD; from tissue; host or cells: MV4-11 xenograft tumours from nude mice
T1 sequence (P36888 with tags, fused parts or gaps INS600HVDFREYEYD): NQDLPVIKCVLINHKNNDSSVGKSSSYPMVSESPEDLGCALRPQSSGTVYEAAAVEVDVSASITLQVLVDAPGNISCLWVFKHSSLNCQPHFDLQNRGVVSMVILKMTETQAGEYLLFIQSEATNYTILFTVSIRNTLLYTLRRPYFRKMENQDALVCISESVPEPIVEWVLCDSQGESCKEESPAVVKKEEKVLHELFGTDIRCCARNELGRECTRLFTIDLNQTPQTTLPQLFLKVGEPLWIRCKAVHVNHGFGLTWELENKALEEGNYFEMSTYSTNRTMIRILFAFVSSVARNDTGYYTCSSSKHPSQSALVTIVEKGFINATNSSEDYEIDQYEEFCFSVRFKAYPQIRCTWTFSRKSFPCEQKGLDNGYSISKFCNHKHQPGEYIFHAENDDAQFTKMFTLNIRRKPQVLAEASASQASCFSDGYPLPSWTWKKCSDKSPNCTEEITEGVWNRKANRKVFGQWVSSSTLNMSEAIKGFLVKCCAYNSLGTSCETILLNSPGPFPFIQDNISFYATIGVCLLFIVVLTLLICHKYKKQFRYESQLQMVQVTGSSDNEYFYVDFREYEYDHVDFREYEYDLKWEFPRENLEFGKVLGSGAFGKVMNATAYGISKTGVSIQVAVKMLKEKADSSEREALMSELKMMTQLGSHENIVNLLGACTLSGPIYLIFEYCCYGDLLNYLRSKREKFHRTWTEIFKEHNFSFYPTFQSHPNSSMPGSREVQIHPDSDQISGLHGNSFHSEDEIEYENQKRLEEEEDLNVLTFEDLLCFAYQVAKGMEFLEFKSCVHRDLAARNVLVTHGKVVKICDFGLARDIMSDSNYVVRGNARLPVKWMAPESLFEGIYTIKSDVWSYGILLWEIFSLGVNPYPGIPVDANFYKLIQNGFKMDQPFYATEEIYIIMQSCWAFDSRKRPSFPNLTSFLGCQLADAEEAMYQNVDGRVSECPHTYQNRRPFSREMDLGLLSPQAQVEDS
In words: ELISA for phosphorylated FLT3 / total FLT3 in MV4-11 xenograft tumors. The format is in vivo, mice. On the procedure: (§1) Detailed protocols can be found in the online resource.
(§2) After 1 month, mice were divided into groups, with each group having approximately the same mean tumor volume.
MULTI-ARRAY® 96-well plates (Meso Scale Discovery, Rockville, MD) were coated with capture antibodies for phosphorylated FLT3 or total FLT3 (DuoSet® IC, R&D systems, Minneapolis, MN) and incubated overnight at 4°C with shaking. After washing with TBS-T, coated plates were blocked with 3% MSD® Blocker-A (Meso Scale Discovery) in TBS-T for 1 h at room temperature and then incubated with total protein lysates derived from MV4-11 xenografted tumors (500 μg/well for phosphorylated FLT3 and 20 μg/well for FLT3), overnight at 4°C. Following a wash step, anti-phosphotyrosine antibody (clone 4G10®, Biotin Conjugate [Millipore, Billerica, MA]) for the detection of phosphorylated FLT3 or the DuoSet® IC FLT3 detection antibody for total FLT3 were added to the plate and incubated for 2 h at room temperature. Wells were then washed and incubated with MSD® SULFO-TAG Labeled Streptavidin (Meso Scale Discovery) for 1 h at room temperature, followed by the addition of MSD® Read Buffer (Meso Scale Discovery). Electrochemiluminescent signals were measured using a SECTOR® imager (Meso Scale Discovery). Phosphorylation levels were normalized to total FLT3 levels in each group (3 mice/group except the point at 1 h after the administration of 1 mg/kg [2 mice]) relative to the mean value of the control group (5 mice/group). Data are reported as mean ± SEM.
For orientation: In an ELISA, binding on a coated surface is turned into a signal by an enzyme label.

A further experiment concerns the target T2, MER (Homo sapiens, UniProt Q12866).
T2 construct: purchased Carna Biosciences, Inc
In words: Tyrosine kinase panel (off-chip MSA). The format is biochemical. The settings on record: 5 nM; single experiment. How it is done:
(§3) Inhibitory assay for the panel of tyrosine kinases was conducted using off-chip MSA. Percentage inhibitions were determined in a single experiment

A further experiment has as its target T3, RET (Homo sapiens, UniProt P07949).
T3 construct: purchased Carna Biosciences, Inc
In words: Tyrosine kinase panel (off-chip MSA). To be noted: 5 nM; single experiment. Type of experiment: biochemical. How it is done: as §3

In the next experiment the target is T4, TRKA (Homo sapiens, UniProt P04629).
T4 construct: purchased Carna Biosciences, Inc
T4 sequence (P04629 33-796): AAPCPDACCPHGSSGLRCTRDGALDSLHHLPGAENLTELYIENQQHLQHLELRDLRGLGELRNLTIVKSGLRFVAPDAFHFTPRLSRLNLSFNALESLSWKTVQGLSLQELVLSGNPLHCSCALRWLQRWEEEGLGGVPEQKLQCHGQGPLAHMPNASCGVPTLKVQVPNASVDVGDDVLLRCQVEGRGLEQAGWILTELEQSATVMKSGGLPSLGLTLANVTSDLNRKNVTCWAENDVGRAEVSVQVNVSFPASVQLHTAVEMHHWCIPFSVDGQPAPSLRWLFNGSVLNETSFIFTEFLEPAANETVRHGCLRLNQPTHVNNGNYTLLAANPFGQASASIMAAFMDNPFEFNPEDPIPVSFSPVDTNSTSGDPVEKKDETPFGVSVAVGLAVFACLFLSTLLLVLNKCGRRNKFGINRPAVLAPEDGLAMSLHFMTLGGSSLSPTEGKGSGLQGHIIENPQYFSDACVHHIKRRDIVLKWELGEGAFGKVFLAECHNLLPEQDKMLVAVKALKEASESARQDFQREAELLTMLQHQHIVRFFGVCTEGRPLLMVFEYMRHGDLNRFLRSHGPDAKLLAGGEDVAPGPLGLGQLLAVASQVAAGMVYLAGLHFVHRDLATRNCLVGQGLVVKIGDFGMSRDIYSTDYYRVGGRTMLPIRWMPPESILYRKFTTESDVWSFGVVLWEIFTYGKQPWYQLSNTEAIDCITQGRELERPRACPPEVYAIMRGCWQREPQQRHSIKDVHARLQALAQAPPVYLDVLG
In words: Tyrosine kinase panel (off-chip MSA). Type of experiment: biochemical. To be noted: 5 nM; single experiment. On the procedure: as §3

In the next experiment the target is T5, ALK (Homo sapiens, UniProt Q9UM73).
T5 construct: purchased Carna Biosciences, Inc
T5 sequence (Q9UM73 19-1620): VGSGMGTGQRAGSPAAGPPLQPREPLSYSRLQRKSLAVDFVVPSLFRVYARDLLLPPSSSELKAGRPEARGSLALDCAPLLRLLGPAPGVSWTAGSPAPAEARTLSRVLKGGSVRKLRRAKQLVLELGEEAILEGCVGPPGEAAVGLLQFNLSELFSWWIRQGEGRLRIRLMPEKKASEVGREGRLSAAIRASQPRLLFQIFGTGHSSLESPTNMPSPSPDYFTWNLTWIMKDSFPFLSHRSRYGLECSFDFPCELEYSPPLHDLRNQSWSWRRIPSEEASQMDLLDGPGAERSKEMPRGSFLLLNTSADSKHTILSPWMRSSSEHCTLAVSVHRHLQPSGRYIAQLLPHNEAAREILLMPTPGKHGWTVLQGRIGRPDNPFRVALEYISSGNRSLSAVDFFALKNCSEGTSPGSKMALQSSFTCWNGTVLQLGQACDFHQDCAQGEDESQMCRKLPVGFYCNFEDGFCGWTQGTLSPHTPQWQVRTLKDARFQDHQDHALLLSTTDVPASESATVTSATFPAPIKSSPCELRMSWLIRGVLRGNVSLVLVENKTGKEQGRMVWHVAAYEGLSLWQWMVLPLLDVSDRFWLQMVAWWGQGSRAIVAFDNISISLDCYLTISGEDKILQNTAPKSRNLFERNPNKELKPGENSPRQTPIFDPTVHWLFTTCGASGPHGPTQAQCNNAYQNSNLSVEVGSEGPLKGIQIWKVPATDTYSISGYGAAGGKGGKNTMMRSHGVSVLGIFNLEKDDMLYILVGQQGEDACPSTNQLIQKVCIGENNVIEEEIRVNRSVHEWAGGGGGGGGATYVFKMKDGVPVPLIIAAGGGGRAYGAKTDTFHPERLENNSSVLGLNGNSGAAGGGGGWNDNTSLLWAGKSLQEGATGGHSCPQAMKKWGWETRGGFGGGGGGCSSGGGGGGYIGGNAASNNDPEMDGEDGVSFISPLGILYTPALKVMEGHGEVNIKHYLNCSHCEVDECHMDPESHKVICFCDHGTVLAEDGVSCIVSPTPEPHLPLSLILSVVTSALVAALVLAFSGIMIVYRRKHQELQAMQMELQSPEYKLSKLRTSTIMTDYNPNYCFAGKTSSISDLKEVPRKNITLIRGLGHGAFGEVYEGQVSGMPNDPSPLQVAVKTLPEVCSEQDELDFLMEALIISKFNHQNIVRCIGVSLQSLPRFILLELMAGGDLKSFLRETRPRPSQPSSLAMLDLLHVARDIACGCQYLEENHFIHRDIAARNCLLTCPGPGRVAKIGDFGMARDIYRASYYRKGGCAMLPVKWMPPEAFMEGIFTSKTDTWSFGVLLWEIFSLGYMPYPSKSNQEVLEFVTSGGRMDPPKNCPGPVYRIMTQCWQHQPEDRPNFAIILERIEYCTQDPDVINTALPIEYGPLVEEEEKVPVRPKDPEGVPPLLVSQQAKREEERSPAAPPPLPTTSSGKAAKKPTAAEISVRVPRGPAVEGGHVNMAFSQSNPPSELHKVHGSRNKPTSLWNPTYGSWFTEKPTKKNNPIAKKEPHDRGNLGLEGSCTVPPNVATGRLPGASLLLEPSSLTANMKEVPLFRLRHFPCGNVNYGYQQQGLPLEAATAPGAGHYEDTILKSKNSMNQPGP
In words: Tyrosine kinase panel (off-chip MSA). Type of experiment: biochemical. To be noted: 1 nM; single experiment. On the procedure: as §3

The next experiment deals with T6, ROS (Homo sapiens, UniProt P08922).
T6 construct: purchased Carna Biosciences, Inc
In words: Tyrosine kinase panel (off-chip MSA). To be noted: 5 nM; single experiment. The format is biochemical. On the procedure:
as §3

The subject of experiment [1] is parental Ba/F3 cells in the presence of IL-3. In words: CellTiter-Glo cell viability, off-target. Type of experiment: cell-based. To be noted: Mus musculus, BaF3, 48 h; IL-3 present; 2 days of treatment; off-target inhibition; read-out: Cell growth inhibition IC50. On the procedure:
A detailed protocol is provided in the online resource.
The assay was performed in either triplicate or quadruplicate. […] The geometric mean was calculated from three individual experiments.

The subject of another experiment is phospho-STAT5. In words: Immunoblot for phosphorylated STAT5 / STAT5 in MV4-11 xenograft tumors. The format is in vivo, mice. The settings on record: for Phospho-STAT5, % of baseline levels: 3 mg/kg.
From the text: as §1, §2
MV4-11 xenograft tumor protein samples were electrophoresed on 7.5% gels, transferred to PVDF membranes, and probed for phosphorylated-STAT and total STAT5 as described earlier with one alteration. Following detection of phosphorylated STAT5, the membrane was stripped using Restore™ Western Blot Stripping Buffer (Thermo Fisher Scientific) and then re-probed for total STAT5. Phosphorylation levels were normalized to total STAT5 levels in each group (3 mice/group) relative to the mean value of the control group (4 mice/group). Data are reported as mean ± SEM.

SMILES strings stand for the structures. Some results are limits rather than exact numbers.

T3 sequence (P07949 29-1114): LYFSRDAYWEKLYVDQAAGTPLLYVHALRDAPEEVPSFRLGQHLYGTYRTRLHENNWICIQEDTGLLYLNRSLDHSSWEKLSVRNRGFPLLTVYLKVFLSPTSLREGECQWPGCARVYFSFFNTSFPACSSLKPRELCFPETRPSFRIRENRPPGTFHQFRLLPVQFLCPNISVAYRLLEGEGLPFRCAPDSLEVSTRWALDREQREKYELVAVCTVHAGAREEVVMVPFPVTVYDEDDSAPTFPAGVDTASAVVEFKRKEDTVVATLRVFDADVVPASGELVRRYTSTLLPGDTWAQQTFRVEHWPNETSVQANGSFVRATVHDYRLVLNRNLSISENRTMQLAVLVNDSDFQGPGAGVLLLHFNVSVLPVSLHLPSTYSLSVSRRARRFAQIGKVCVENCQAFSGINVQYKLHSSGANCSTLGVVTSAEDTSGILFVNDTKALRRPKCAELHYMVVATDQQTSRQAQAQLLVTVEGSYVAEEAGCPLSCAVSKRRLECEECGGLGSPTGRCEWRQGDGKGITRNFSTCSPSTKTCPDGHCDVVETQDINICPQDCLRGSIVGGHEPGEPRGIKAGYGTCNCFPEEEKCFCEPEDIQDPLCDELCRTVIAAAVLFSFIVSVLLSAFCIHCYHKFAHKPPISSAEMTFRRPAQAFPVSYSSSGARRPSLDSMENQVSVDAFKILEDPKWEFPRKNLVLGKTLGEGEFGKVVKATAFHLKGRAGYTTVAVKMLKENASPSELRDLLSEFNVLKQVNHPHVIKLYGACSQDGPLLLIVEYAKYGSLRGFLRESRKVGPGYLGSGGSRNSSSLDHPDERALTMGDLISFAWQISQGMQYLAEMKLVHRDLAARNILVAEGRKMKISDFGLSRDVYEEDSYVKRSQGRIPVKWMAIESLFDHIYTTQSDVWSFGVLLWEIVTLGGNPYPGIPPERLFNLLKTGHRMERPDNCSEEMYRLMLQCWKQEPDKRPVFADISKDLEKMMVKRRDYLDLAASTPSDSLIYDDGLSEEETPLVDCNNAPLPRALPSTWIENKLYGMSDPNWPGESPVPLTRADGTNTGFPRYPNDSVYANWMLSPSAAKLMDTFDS
T2 sequence (Q12866 21-999): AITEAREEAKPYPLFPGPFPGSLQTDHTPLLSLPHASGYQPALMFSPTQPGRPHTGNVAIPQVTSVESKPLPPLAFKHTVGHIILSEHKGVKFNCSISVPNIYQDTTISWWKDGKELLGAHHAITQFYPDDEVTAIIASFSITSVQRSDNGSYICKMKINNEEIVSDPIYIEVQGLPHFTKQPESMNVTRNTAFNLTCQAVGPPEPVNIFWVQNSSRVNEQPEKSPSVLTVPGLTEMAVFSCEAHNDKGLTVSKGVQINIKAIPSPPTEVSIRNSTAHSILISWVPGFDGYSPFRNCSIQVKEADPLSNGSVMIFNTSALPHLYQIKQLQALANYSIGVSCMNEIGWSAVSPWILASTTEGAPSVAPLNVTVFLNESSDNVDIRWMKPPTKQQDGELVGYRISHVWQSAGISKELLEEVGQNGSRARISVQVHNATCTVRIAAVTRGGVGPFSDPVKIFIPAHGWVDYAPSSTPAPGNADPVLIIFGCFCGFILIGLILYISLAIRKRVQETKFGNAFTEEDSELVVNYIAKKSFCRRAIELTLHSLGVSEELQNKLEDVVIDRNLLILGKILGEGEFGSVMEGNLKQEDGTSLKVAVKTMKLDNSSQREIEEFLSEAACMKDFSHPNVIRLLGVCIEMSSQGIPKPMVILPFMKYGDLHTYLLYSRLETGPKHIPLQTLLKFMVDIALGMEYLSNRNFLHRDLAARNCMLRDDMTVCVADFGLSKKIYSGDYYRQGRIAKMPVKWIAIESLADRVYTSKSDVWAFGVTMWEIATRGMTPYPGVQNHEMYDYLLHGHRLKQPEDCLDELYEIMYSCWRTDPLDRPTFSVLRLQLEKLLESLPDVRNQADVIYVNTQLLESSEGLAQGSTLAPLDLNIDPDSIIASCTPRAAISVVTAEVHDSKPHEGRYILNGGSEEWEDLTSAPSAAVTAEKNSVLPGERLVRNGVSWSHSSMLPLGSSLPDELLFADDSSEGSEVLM

In the case of `CCc1nc(C(N)=O)c(Nc2ccc(N3CCC(N4CCN(C)CC4)CC3)c(OC)c2)nc1NC1CCOCC1` [gilteritinib], the Survival entry with MV4–11-luc cells (30 mg/kg once daily day 15–70, monitored until day 168, n = 10) is reported as “all treated mice survived to day 168”. Besides, the “MV4–11 cell infiltration” value with MV4–11-luc cells (30 mg/kg once daily, whole-body imaging) is “no evidence of cell infiltration”. Also, the “Phospho-FLT3 state in tumor” value on phosphorylated FLT3 (single oral 1 mg/kg, by 24 h) is “returned to the pre-treatment level”. The “Decrease in phospho-FLT3 in tumor” value on phosphorylated FLT3 (single oral 10 mg/kg, 24 h period) is reported as “maintained throughout the 24 h experimental period”. In addition, the “Decrease of phosphorylated FLT3 in tumor compared with control” value at phosphorylated FLT3 (within 1 h after single oral 1–10 mg/kg) is “approximately 40%”. Besides, the inhibition at 0.005 µM at MER, against RET, at TRKA and against ROS was > 50% in each case. Besides, the inhibition at 0.001 µM against ALK was > 50%. For the same compound, the IC50 in experiment [1] came out at 0.42 µM. Besides, the “Phospho-STAT5, % of baseline levels” value in the experiment with phospho-STAT5 (4 h and 8 h) was < 20%; with phospho-STAT5 (24 h) it was “approximately 50%”. The “Phosphorylation level of STAT5 in tumors” value in the experiment with phospho-STAT5 (4 h and 8 h after single dose of 6 mg/kg or 10 mg/kg) is “almost completely abolished”. Also, the “STAT5 phosphorylation level, % of baseline” value in the experiment on phospho-STAT5 (24 h post drug, 6 mg/kg or 10 mg/kg) was ~20%.

For orientation: inhibition means how much of the control response was suppressed. By IC50 is commonly meant the point on the concentration scale where inhibition reaches its midpoint.
